Laboratory results: US5061795A, “Hexa-cyclic compound” (Daiichi Pharmaceutical Co., Ltd., priority 1987, dated 1991)
In brackets after ≈: the same amount, converted by molar mass. Read-outs that look alike come from different tables or passages of the source.

How the values were obtained:
[1] = tested on: Mouse leukemia P388 cells; assay: MTT assay on mouse leukemia P388 cells, 72 hours; format: cell-based
Experimental: Mouse leukemia P388 cells, harvested from a pre-culture medium, were suspended in a fresh PRMI 1640 medium supplemented with 10% FCS (GIBCO) and inoculated in a volume of 0.05 ml at 2.5×10^3/ml cells per well in 96-well microplates. Following 24 hour incubation at 37° C. under 5% CO2 and 100 relative humidity, 0.05 ml of the culture medium or a culture medium containing a test compound was dispersed into each well. The cells in the medium were then incubated for 72 hours. At 4 hours before the end of incubation, 0.01 ml of MTT [3-(4,5-dimethylthiazol-2-yl)-2,5-diphenyl-2H-tetrazolium bromide] solution dissolved in phosphate-buffer saline at a concentration of 5 mg/ml was added. After 4 hour exposure with the MTT solution, the reaction was stopped by the addition of 0.2 ml/well of 1M HCl:i-propanol (1:24) followed by thorough mixing. The optical density of the solution was measured by EAR 400 (SLT Labinstruments, Austria) at 540 nm.

[2] = tested on: P388 murine leukemia cells; assay: Antitumour effect against P388 murine leukemia in male CDF-1 mice (median survival time); format: in vivo, mouse; conditions: for Mice Survived for 40 days: intraperitoneal on day 1, CDF-1 mice; for T/C (median survival time of treated group against control group): intraperitoneal on day 1, P388 cells inoculated on day 0, CDF-1 mice
Experimental: P388 murine leukemia cells (1×10^6 /mouse) were inoculated into male CDF-1 mice (5-6 mice per group, age 7-10 weeks, weighing 21-34 g) on day 0, and the test compound was administered intraperitoneally on day 1.
The test compound were dissolved in water or physiological saline after having been converted into sodium salts, or suspended into a physiological saline containing 0.9% benzyl alcohol, 0.4% Tween 80, or 0.5% CMC.
The antitumour effect was evaluated by the percentage of the median survival time of the treated group (T) against that of the control group (C).

[3] = tested on: P388 mouse leukemia cells; assay: Growth inhibition of P388 mouse leukemia cells, cell count after 72 hours; format: cell-based
Experimental: A test compound was added to a suspension containing P388 mouse leukemia cells (2×10^4 /ml) and the cells were cultured in 5% CO2 at […]. After 72 hours, the number of the cells were counted to determine the IC50 value.

nucleic acid synthesis = conditions: background statement; cited from earlier work
[4] = clinical tests conducted in the United States; cited from earlier work
[5] = repeated in the table of Experimental Example 3, footnote *, read-out: IC50 (in parentheses; value obtained by determination in Experimental Example 2)

Row | SMILES | IC50 [1] | IC50 ([3]; cell count, read-out: IC50) | further results
1 | CC[C@@]1(O)C(=O)OCc2c1cc1n(c2=O)Cc2c-1nc1ccc(CN)c3c1c2CCC3.Cl [Example 33, (s)-4-aminomethyl-9-ethyl-2,3-dihydro-9-hydroxy-1H,12H-benzo[de]pyrano[3',4':6,7]indolizino[1,2-b]quinoline-10,13(9H,15H)-dione hydrochloride] | 5.52 ng/mL | – | –
2 | CCC1(O)C(=O)OCc2c1cc1n(c2=O)Cc2c-1nc1ccc(C)c3c1c2CCO3 (stereo not shown) [Example 2, 9-ethyl-1,2-dihydro-9-hydroxy-4-methyl-12H-pyrano[4,3,2-de]pyrano[3',4':6,7]indolizino[1,2-b]quinoline-10,13(9H,15H)-dione] | – | 0.81 ng/mL (≈ 2 nM) | Mice Survived for 40 days ([2]; 480 mg/kg): 4 Out of 6; T/C (median survival time of treated group against control group) ([2]; 480 mg/kg): > 376%
3 | CC[C@@]1(O)C(=O)OCc2c1cc1n(c2=O)Cc2c-1nc1ccc(CN)c3c1c2CCS3.Cl [Example 31, (s)-4-aminomethyl-9-ethyl-1,2-dihydro-9-hydroxy-12H-thiino[4,3,2-de]pyrano[3',4':6,7]indolizino[1,2-b]quinoline-10,13(9H,15H)-dione hydrochloride] | 3.66 ng/mL | – | –
4 | CCC1(O)C(=O)OCc2c1cc1n(c2=O)Cc2c-1nc1ccc(O)c3c1c2CCC3 (stereo not shown) [Example 1, 9-ethyl-2,3-dihydro-4,9-dihydroxy-1H,12H-benzo[de]pyrano[3',4': 6,7]indolizino[1,2-b]quinoline-10,13(9H,15H)-dione] | 3.8 ng/mL (≈ 9.4 nM) | 1.47 ng/mL (≈ 3.63 nM) | Mice Survived for 40 days ([2]; 240 mg/kg): 5 Out of 6; T/C (median survival time of treated group against control group) ([2]; 240 mg/kg): > 392%; IC50 [3, 5]: 1.47 ng/mL (≈ 3.63 nM)
5 | CC[C@@]1(O)C(=O)OCc2c1cc1n(c2=O)Cc2c-1nc1ccc(CN)c3c1c2CCO3.Cl [Example 38, (s)-4-aminomethyl-9-ethyl-1,2-dihydro-9-hydroxy-12H-pyrano[4,3,2-de]pyrano[3',4':6,7]indolizino[1,2-b]quinoline-10,13(9H,15H)-dione hydrochloride] | 6.36 ng/mL | – | –
6 | CCC1(O)C(=O)OCc2c1cc1n(c2=O)Cc2c-1nc1cccc3c1c2CCS3 (stereo not shown) [Example 21, 1,2-dihydro-9-ethyl-9-hydroxy-12H-thiino[4,3,2,-de]pyrano[3',4': 6,7]indolizino[1,2-b]quinoline-10,13(9H,15H)-dione] | – | 3.41 ng/mL (≈ 8.39 nM) | –
7 | CCC1(O)C(=O)OCc2c1cc1n(c2=O)Cc2c-1nc1ccc(C)c3c1c2CCS3 (stereo not shown) [Example 3, 9-ethyl-1,2-dihydro-9-hydroxy-4-methyl-12H-thiino[4,3,2-de]pyrano[3',4':6,7]indolizino[1,2-b]quinoline-10,13(9H,15H)-dione] | – | 4.32 ng/mL (≈ 10.3 nM) | Mice Survived for 40 days ([2]; 480 mg/kg): 5 Out of 6; T/C (median survival time of treated group against control group) ([2]; 480 mg/kg): > 400%
8 | CC[C@@]1(O)C(=O)OCc2c1cc1n(c2=O)Cc2c-1nc1ccc(CNC)c3c1c2CCS3.Cl [Example 36, (s)-9-ethyl-1,2-dihydro-9-hydroxy-4-methylaminomethyl-12H-thiino[4,3,2-de]pyrano[3',4':6,7]indolizino[1,2-b]quinoline-10,13(9H,15H)-dione hydrochloride] | 12.2 ng/mL | – | –
9 | CCC1(O)C(=O)OCc2c1cc1n(c2=O)Cc2c-1nc1ccc(C)c3c1c2CCN3 (stereo not shown) [Example 4, 9-ethyl-1,2-dihydro-9-hydroxy-4-methyl-3H,12H-pyrano[3',4': 6,7]indolizino[1,2-c]benzo[ij][2,7]naphthilidine-10,13(9H,15H)-dione] | 4.46 ng/mL (≈ 11.1 nM) | 3.73 ng/mL (≈ 9.25 nM) | IC50 [3, 5]: 3.73 ng/mL (≈ 9.25 nM)
10 | CCC1(O)C(=O)OCc2c1cc1n(c2=O)Cc2c-1nc1ccc(N)c3c1c2CCC3 (stereo not shown) [Example 39, 4-amino-9-ethyl-2,3-dihydro-9-hydroxy-1H,12H-benzo[de]pyrano [3',3':6,7]indolizino[1,2-b]quinoline-10,13(9H,15H)-dione] | 2.97 ng/mL (≈ 7.36 nM) | – | –
11 | CCC1(O)C(=O)OCc2c1cc1n(c2=O)Cc2c-1nc1ccc(O)c3c1c2CC3 (stereo not shown) [Example 8, 8-ethyl-1,2-dihydro-3,8-dihydroxy-11H-cyclopenta[de]pyrano[3',4':6,7]indolizino[1,2-b]quinoline-9,12(8H,14H)-dione] | – | 3.03 ng/mL (≈ 7.76 nM) | –
12 | CCC1(O)C(=O)OCc2c1cc1n(c2=O)Cc2c-1nc1ccc(O)c3c1c2CCO3 (stereo not shown) [Example 11, 9-ethyl-1,2-dihydro-4,9-dihydroxy-12H-pyrano[4,3,2-de]pyrano[3',4':6,7]indolizino[1,2-b]quinoline-10,13(9H,15H)-dione] | 4.05 ng/mL (≈ 9.97 nM) | 2.64 ng/mL (≈ 6.5 nM) | IC50 [3, 5]: 2.64 ng/mL (≈ 6.5 nM)
13 | CCC1(O)C(=O)OCc2c1cc1n(c2=O)Cc2c-1nc1ccc(C#N)c3c1c2CCS3 (stereo not shown) [Example 16, 4-cyano-1,2-dihydro-9-ethyl-9-hydroxy-12H-thiino[4,3,2-de]pyrano[3',4':6,7]indolizino[1,2-b]quinoline-10,13(9H,15H)dione] | – | 7.23 ng/mL (≈ 16.8 nM) | Mice Survived for 40 days ([2]; 60 mg/kg): 4 Out of 6; T/C (median survival time of treated group against control group) ([2]; 60 mg/kg): 443%
14 | CCC1(O)C(=O)OCc2c1cc1n(c2=O)Cc2c-1nc1ccc(N)c3c1c2CCS3 (stereo not shown) [Example 20, 4-amino-1,2-dihydro-9-ethyl-9-hydroxy-12H-thiino[4,3,2,-de]pyrano[3',4': 6,7]indolizino [1,2-b]quinoline-10,13(9H,15H)-dione] | – | 0.92 ng/mL (≈ 2.18 nM) | –
15 | CCC1(O)C(=O)OCc2c1cc1n(c2=O)Cc2c-1nc1ccc(Cl)c3c1c2CCC3 (stereo not shown) [Example 5, 4-chloro-9-ethyl-2,3-dihydro-9-hydroxy-1H,12H-benzo[de]pyrano[3',4':6,7]indolizino[1,2-b]quinoline-10,13(9H,15H)-dione] | – | 3.3 ng/mL (≈ 7.8 nM) | –
16 | CC[C@@]1(O)C(=O)OCc2c1cc1n(c2=O)Cc2cc3ccccc3nc2-1 [Camptothecin] | – | – | antitumour activity (nucleic acid synthesis): known to exhibit an antitumour activity because of its capability of inhibiting nucleic acid synthesis; safety in clinical tests [4]: found to have a problem in view of safety
